Results taken from ChEMBL document CHEMBL1909046, “DrugMatrix in vitro pharmacology data”.

Assays:
[1] = biological target: Sodium-dependent noradrenaline transporter (Homo sapiens, UniProt P23975); experiment: DRUGMATRIX: Norepinephrine Transporter radioligand binding (ligand: [125I] RTI-55); type: cell membranes, MDCK, Membrane; conditions: Not Active = under 50% inhibition at 10 µM
[2] = biological target: Vasopressin V1a receptor (Homo sapiens, UniProt P37288); type: cell membranes, Membrane; conditions: hek293; also: in other assays of this panel Not Active means under 50% inhibition at 10 µM
[3] = DRUGMATRIX: Potassium Channel [KATP] radioligand binding (ligand: [3H] Glyburide); type: cell membranes, Membrane; conditions: hit-t15; Not Active = under 50% inhibition at 10 µM
[4] = biological target: Mitogen-activated protein kinase 3 (Homo sapiens, UniProt P27361); experiment: DRUGMATRIX: Protein Serine/Threonine Kinase, ERK1 enzyme inhibition (substrate: Myelin Basic Protein); design: species or system Escherichia coli; conditions: Not Active = under 50% inhibition at 10 µM
[5] = biological target: Epidermal growth factor receptor (Homo sapiens, UniProt P00533); experiment: DRUGMATRIX: Protein Tyrosine Kinase, EGF Receptor enzyme inhibition (substrate: Poly(Glu:Tyr)); type: cell-based, Insect cells; conditions: insect cells, Not Active = under 50% inhibition at 10 µM
[6] = biological target: Voltage-gated inwardly rectifying potassium channel KCNH2 (Homo sapiens, UniProt Q12809); conditions: hek293; also: in other assays of this panel Not Active means under 50% inhibition at 10 µM
Chain of Voltage-gated inwardly rectifying potassium channel KCNH2 (Q12809 whole entry): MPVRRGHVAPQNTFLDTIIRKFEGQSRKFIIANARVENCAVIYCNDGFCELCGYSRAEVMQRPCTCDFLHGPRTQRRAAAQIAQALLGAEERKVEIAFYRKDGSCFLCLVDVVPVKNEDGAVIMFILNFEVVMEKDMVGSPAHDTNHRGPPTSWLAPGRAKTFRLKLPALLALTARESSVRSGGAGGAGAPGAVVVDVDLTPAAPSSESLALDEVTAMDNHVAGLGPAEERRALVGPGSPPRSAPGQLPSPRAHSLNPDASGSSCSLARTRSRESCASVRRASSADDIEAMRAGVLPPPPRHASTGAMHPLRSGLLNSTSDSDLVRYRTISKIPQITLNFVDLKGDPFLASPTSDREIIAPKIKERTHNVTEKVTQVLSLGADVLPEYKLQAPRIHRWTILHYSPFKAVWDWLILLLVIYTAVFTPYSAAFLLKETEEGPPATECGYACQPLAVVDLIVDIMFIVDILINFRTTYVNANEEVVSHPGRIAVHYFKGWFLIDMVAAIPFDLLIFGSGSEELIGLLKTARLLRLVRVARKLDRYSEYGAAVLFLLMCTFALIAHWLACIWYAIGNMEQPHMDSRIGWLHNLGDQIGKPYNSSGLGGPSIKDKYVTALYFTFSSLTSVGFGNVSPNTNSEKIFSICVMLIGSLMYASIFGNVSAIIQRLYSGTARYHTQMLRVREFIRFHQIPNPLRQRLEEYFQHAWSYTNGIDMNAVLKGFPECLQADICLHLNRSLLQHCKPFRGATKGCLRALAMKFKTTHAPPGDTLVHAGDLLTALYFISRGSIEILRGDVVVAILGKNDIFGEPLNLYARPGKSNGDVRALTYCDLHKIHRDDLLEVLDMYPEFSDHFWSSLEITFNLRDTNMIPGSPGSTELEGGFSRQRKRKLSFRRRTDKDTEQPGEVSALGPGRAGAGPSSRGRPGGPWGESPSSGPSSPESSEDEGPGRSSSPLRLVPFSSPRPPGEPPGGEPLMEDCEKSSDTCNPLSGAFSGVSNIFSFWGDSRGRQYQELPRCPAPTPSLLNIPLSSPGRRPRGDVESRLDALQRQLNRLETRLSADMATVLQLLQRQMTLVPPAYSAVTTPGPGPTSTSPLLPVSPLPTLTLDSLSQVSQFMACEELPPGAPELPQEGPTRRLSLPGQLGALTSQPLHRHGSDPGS

Chain of Mitogen-activated protein kinase 3 (P27361 whole entry): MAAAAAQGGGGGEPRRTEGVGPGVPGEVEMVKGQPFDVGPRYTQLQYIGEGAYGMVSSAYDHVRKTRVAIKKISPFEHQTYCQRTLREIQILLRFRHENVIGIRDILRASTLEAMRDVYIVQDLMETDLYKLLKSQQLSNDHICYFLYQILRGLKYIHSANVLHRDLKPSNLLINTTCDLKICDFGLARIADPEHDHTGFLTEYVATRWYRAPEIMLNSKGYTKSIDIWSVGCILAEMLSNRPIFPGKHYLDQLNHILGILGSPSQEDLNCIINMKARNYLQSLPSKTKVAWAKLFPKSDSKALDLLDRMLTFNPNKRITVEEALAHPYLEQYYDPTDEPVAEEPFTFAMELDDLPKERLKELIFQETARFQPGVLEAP
Chain of Sodium-dependent noradrenaline transporter (P23975 whole entry): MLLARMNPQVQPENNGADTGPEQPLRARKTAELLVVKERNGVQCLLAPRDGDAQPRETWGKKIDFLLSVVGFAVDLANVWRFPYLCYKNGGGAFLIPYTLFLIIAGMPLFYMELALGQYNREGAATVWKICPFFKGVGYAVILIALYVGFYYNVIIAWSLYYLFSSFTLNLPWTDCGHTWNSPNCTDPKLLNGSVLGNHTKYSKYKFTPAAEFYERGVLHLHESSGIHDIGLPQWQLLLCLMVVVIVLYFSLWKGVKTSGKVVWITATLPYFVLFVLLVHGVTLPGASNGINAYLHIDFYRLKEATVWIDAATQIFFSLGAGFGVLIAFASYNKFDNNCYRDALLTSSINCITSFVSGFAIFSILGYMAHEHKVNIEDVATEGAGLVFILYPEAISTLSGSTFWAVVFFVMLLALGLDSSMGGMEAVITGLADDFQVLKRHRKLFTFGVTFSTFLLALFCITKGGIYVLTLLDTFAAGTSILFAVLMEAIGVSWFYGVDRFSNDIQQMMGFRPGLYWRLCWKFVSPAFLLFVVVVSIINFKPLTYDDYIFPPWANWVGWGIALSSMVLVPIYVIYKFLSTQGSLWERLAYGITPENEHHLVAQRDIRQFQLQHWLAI
Chain of Vasopressin V1a receptor (P37288 whole entry): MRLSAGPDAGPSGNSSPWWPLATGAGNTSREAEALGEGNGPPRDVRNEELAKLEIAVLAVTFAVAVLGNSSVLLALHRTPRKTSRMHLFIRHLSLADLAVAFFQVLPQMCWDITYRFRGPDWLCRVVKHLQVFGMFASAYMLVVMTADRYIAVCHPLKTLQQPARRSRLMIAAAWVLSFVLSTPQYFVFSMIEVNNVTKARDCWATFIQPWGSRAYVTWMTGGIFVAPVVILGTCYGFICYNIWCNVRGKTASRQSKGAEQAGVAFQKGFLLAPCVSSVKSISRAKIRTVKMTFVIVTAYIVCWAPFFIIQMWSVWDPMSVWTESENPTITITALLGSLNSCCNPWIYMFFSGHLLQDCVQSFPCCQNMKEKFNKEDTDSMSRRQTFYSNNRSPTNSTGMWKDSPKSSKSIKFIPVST

Row | Compound | IC50 ([1]; read-out: IC50) [nM] | Ki ([1]; read-out: Ki) [nM] | IC50 [2] | IC50 [3] | Ki [3] | IC50 [4] | IC50 [5] | IC50 [6] | Ki [6] | IC50 ([1]; mdck) | Ki ([1]; mdck) | Ki [2] | Ki [4] | Ki [5] | IC50 ([5]; read-out: IC50) [nM]
1 | CN1CCCC(CN2c3ccccc3Sc3ccccc32)C1 (stereo not drawn) [MEPAZINE] | 1880 | 1860 | Not Active | Not Active | Not Active | Not Active | Not Active | Not Active | Not Active |  |  |  |  |  | 
2 | Cc1cccc(C)c1NC(=O)C1CCCCN1C (stereo not drawn) [MEPIVACAINE] |  |  | Not Active | Not Active | Not Active | Not Active | Not Active | Not Active | Not Active | Not Active |  |  |  |  | 
3 | CN(C)C(=N)NC(=N)N [METFORMIN] |  |  | Not Active | Not Active | Not Active | Not Active | Not Active | Not Active | Not Active | Not Active |  |  |  |  | 
4 | CC(C)(C)NCC(O)COc1cccc2c1CC(O)C(O)C2 (stereo not drawn) [NADOLOL] |  |  | Not Active | Not Active | Not Active | Not Active | Not Active | Not Active | Not Active | Not Active |  |  |  |  | 
5 | C[C@]12CC[C@H]3[C@@H](CCC4=CC(=O)CC[C@@H]43)[C@@H]1CC[C@@H]2O [NANDROLONE] |  |  | Not Active | Not Active | Not Active | Not Active | Not Active | Not Active | Not Active | Not Active |  |  |  |  | 
6 | C[C@@H]1C/C=C/C=C/C=C/C=C/[C@H](O[C@@H]2O[C@H](C)[C@@H](O)[C@H](N)[C@@H]2O)C[C@@H]2O[C@](O)(C[C@@H](O)C[C@H]3O[C@@H]3/C=C/C(=O)O1)C[C@H](O)[C@H]2C(=O)O [NATAMYCIN] |  |  | Not Active | Not Active | Not Active | Not Active | Not Active | Not Active | Not Active | Not Active |  |  |  |  | 
7 | CN(C)C(=O)Oc1cccc([N+](C)(C)C)c1.[Br-] [NEOSTIGMINE BROMIDE] |  |  | Not Active | Not Active | Not Active | Not Active | Not Active | Not Active | Not Active | Not Active |  |  |  |  | 
8 | NC(=O)c1cccnc1 [NIACINAMIDE] |  |  | Not Active | Not Active | Not Active | Not Active | Not Active | Not Active | Not Active | Not Active |  |  |  |  | 
9 | CS(=O)(=O)Nc1ccc([N+](=O)[O-])cc1Oc1ccccc1 [NIMESULIDE] |  |  | Not Active | Not Active | Not Active | Not Active | Not Active | Not Active | Not Active | Not Active |  |  |  |  | 
10 | CN1C(=O)CN=C(c2ccccc2)c2cc([N+](=O)[O-])ccc21 [NIMETAZEPAM] |  |  | Not Active | Not Active | Not Active | Not Active | Not Active | Not Active | Not Active | Not Active |  |  |  |  | 
11 | COc1ccc2c(c1OC)C(=O)O[C@@H]2[C@H]1c2c(cc3c(c2OC)OCO3)CCN1C [NOSCAPINE] |  |  | Not Active | Not Active | Not Active | Not Active | Not Active | Not Active | Not Active | Not Active |  |  |  |  | 
12 | NC(=O)N1c2ccccc2CC(=O)c2ccccc21 [OXCARBAZEPINE] |  |  | Not Active | Not Active | Not Active | Not Active | Not Active | Not Active | Not Active | Not Active |  |  |  |  | 
13 | COc1ccnc(C[S+]([O-])c2nc3ccc(OC(F)F)cc3[nH]2)c1OC (stereo not drawn) [PANTOPRAZOLE] |  |  | Not Active | Not Active | Not Active | Not Active | Not Active | Not Active | Not Active | Not Active |  |  |  |  | 
14 | NNCCc1ccccc1 [PHENELZINE] |  |  | Not Active | Not Active | Not Active | Not Active | Not Active | Not Active | Not Active | Not Active |  |  |  |  | 
15 | CCc1ccc(CCOc2ccc(CC3SC(=O)NC3=O)cc2)nc1 (stereo not drawn) [PIOGLITAZONE] |  |  | Not Active | Not Active | Not Active | Not Active | Not Active | Not Active | Not Active | Not Active |  |  |  |  | 
16 | CCCNC(C)C(=O)Nc1ccccc1C (stereo not drawn) [PRILOCAINE] |  |  | Not Active | Not Active | Not Active | Not Active | Not Active | Not Active | Not Active | Not Active |  |  |  |  | 
17 | CCN(CC)CCNC(=O)c1ccc(N)cc1 [PROCAINAMIDE] |  |  | Not Active | Not Active | Not Active | Not Active | Not Active | Not Active | Not Active | Not Active |  |  |  |  | 
18 | CCN(CC)CCCC(C)Nc1c2ccc(Cl)cc2nc2ccc(OC)cc12 (stereo not drawn) [QUINACRINE] | 2900 | 2870 | Not Active | Not Active | Not Active | Not Active | Not Active | Not Active | Not Active |  |  |  |  |  | 
19 | C[C@]12C=CC(=O)C=C1CC[C@H]1[C@@H]3C[C@@H](O)[C@](O)(C(=O)CO)[C@@]3(C)C[C@H](O)[C@@]12F [TRIAMCINOLONE] |  |  | Not Active | Not Active | Not Active | Not Active | Not Active | Not Active | Not Active | Not Active |  |  |  |  | 
20 | CC[C@]1(O)C[C@@H]2CN(CCc3c([nH]c4ccccc34)[C@@](C(=O)OC)(c3cc4c(cc3OC)N(C)[C@H]3[C@@](O)(C(N)=O)[C@H](O)[C@]5(CC)C=CCN6CC[C@]43[C@@H]65)C2)C1 [VINDESINE] |  |  | Not Active | Not Active | Not Active | Not Active | Not Active | Not Active | Not Active | Not Active |  |  |  |  | 
21 | CCN(C(C)=O)c1cccc(-c2ccnc3c(C#N)cnn23)c1 [ZALEPLON] |  |  | Not Active | Not Active | Not Active | Not Active | Not Active | Not Active | Not Active | Not Active |  |  |  |  | 
22 | COBALTOUS CHLORIDE |  |  | Not Active | Not Active | Not Active | Not Active | Not Active | Not Active | Not Active | Not Active | Not Active | Not Active | Not Active | Not Active | 
23 | COLISTIN |  |  | Not Active | Not Active | Not Active | Not Active |  | Not Active | Not Active | Not Active | Not Active | Not Active | Not Active |  | 1500
